The values that follow come from patent publication EP2252154B1, “METHOD FOR MINIMIZING THE CYTOTOXICITY OF THE EFFECTIVE AGENT IN A COMPOSITION THAT IS ADMINISTERED TO A MAMMAL OR GETS INTO CONTACT WITH A MAMMAL” (Oy Granula AB LTD, priority 2008, dated 2009).

Converted amounts (≈) assume the structure as drawn. Read-outs that look alike come from different tables or passages of the source.

One data set deals with human keratinocyte cells. How it is done: The composition of the individual compounds included in the compound mixture contained by the samples was in accordance with Table 3B. The cytotoxicity of the sample extracts and powders for human keratinocyte cells was measured. The employed measure of cytotoxicity was the total protein quantity created by the samples, when the samples were incubated together with human keratinocyte cells for a certain incubation time (24 h). For each sample, there was searched a limit value (EC20), by which 20% of the cultivated cells died.

A short description of data set [1]: Peroxide radicals capturing capacity. The class given is biochemical. As to conditions: pure polyphenols isolated from wood material; per gram.
Data set [2] can be described thus: Antioxidative capacity: inhibition of the peroxidation of lipids. The class given is biochemical. As to conditions: pure polyphenols isolated from wood materials.
For data set [3] the following is noted: pure polyphenols; footnote 1: Willför et al., J. Agric. Food. Chem, 51. 26 (2003); cited from earlier work.
For data set [4] the following is noted: pure polyphenols; footnote 1: Willför et al., J. Agric. Food. Chem., 51, 7600-7606 (2003); cited from earlier work.

Consider `Cc1cc(C(C)(C)C)c(O)c(C(C)(C)C)c1` [BTH, butylated hydroxytoluene], for which the “times more cytotoxic with respect to HMR extract mixtures” value with human keratinocyte cells (from Table 1) is on record as 50-100 times. Also, the “EC20 ppm 24 h” value in the data set on human keratinocyte cells (human, 24 h) is listed as 5.50 ppm.
In turn, `COc1cc([C@H]2c3cc(O)c(OC)cc3C[C@@H](CO)[C@@H]2CO)ccc1O` [Cyclolariciresinol] displayed a capturing capacity in data set [1] of 12 mmol/g. For the same compound, the “EC50” value in data set [2] turned out to be 0.017 µg/mL (≈ 0.0472 µM).
For `O=C1c2c(O)cc(O)cc2O[C@H](c2ccc(O)cc2)[C@H]1O` [Dihydrokaempferol], in that order: 0.78 mmol/g and 0.488 µg/mL (≈ 1.69 µM).
As to `COc1cc(C[C@H]2C(=O)OC[C@@H]2[C@H](O)c2ccc(O)c(OC)c2)ccc1O` [Hydroxymatairesinol], the concentration giving a half-maximal response (EC50) in data set [3] is 0.058 µg/mL (≈ 0.155 µM). Further, in data set [4], the capturing capacity is given as 5.6 mmol/g.
`COc1cc(C[C@H]2CO[C@H](c3ccc(O)c(OC)c3)[C@H]2CO)ccc1O` [Lariciresinol]: the “EC50” value in data set [3] is 0.126 µg/mL (≈ 0.35 µM). Moreover, in data set [4], the capturing capacity is reported as 2.7 mmol/g.
As for `COc1cc(C[C@H]2COC(=O)[C@@H]2Cc2ccc(O)c(OC)c2)ccc1O` [Matairesinol], in data set [3], the “EC50” value was 0.099 µg/mL (≈ 0.276 µM). Moreover, the capturing capacity in data set [4] is 2.9 mmol/g.
With `Oc1ccc([C@H]2Oc3c(ccc(O)c3O)[C@@H](O)[C@H]2O)cc1O` [Melacasidine], the capturing capacity in data set [1] was 20 mmol/g. Further, the concentration for a half-maximal effect (EC50) in data set [2] came out at 0.036 µg/mL (≈ 0.118 µM).
For `COc1cc(CC2COC(=O)C2(O)Cc2ccc(O)c(OC)c2)ccc1O` (stereo not shown) [Nortrachelogenin], in data set [3], the concentration giving a half-maximal response (EC50) is 0.053 µg/mL (≈ 0.142 µM). In addition, in data set [4], the capturing capacity is on record as 5.9 mmol/g.
For the compound `O=C1C[C@@H](c2ccccc2)Oc2cc(O)cc(O)c21` [Pinosembrin], the capturing capacity in data set [1] turned out to be 0.49 mmol/g. Moreover, in data set [2], the concentration giving a half-maximal response (EC50) is 1.135 µg/mL (≈ 4.43 µM).
For `Oc1cc(O)cc(/C=C/c2ccccc2)c1` [Pinosylvin], in that order: 0.78 mmol/g and 0.05 µg/mL (≈ 0.236 µM).
Regarding `COc1cc(C[C@@H](CO)[C@H](CO)Cc2ccc(O)c(OC)c2)ccc1O` [Secoisolariciresinol], the concentration for a half-maximal effect (EC50) in data set [3] was 0.037 µg/mL (≈ 0.102 µM). For the same compound, the capturing capacity in data set [4] is 8.5 mmol/g.
As to `O=C1c2c(O)cc(O)cc2O[C@H](c2ccc(O)c(O)c2)[C@H]1O` [Taxifolin], in data set [3], the half-maximal effective concentration (EC50) was 0.046 µg/mL (≈ 0.151 µM). Moreover, the capturing capacity in data set [4] is reported as 16 mmol/g.
The compound `Oc1ccc([C@H]2Oc3c(ccc(O)c3O)[C@@H](O)[C@H]2O)cc1` [Teracasidine] yielded a capturing capacity in data set [1] of 7.8 mmol/g. In addition, the “EC50” value in data set [2] came to 0.05 µg/mL (≈ 0.172 µM).
Pinoresinol: the capturing capacity in data set [1] is listed as 7.8 mmol/g. The “EC50” value in data set [2] turned out to be 0.02 µg/mL.

A word on the EC50: it is the midpoint of the concentration-response curve.
